According to PubChem BioAssay (NCI):
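Results reflect a 48-hour exposure of cells in 96-well plates to compound at five concentrations. At the GI50, growth is halved. Definition used: TGI = concentration required for complete inhibition of growth.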

Experiments:
Experiment in all cases: NCI anticancer screen, dose series, 48 h
OVCAR-4 ovarian = test system: OVCAR-4 ovarian
PC-3 prostate = test system: PC-3 prostate
MCF7 breast = test system: MCF7 breast
HCT-15 colon = test system: HCT-15 colon
HL-60(TB) leukemia = test system: HL-60(TB) leukemia
HCC-2998 colon = test system: HCC-2998 colon
EKVX NSCLC = test system: EKVX NSCLC
RXF 393 renal = test system: RXF 393 renal
HT29 colon = test system: HT29 colon
M14 melanoma = test system: M14 melanoma

Row | Structure (SMILES) | TGI (OVCAR-4 ovarian) | GI50 (PC-3 prostate) | TGI (PC-3 prostate) | GI50 (MCF7 breast) | TGI (MCF7 breast) | GI50 (HCT-15 colon) | TGI (HCT-15 colon) | GI50 (HL-60(TB) leukemia) | TGI (HL-60(TB) leukemia) | GI50 (HCC-2998 colon) | TGI (HCC-2998 colon) | GI50 (EKVX NSCLC) | TGI (EKVX NSCLC) | TGI (RXF 393 renal) | GI50 (HT29 colon) | TGI (HT29 colon) | GI50 (M14 melanoma) | TGI (M14 melanoma) | GI50 (OVCAR-4 ovarian) | GI50 (RXF 393 renal)
1 | CCn1c(CO)nn(-c2cc(O[C@@H](C)C(F)(F)F)c(C(=O)Nc3c(F)cccc3Cl)cc2F)c1=O | > 100 µM | < 0.01 µM | > 100 µM | < 0.01 µM | > 100 µM | < 0.01 µM | > 100 µM | 0.0357 µM | > 46.7 µM | < 0.01 µM | > 100 µM | 8.47 µM | > 100 µM | > 100 µM | < 0.01 µM | > 100 µM | < 0.0144 µM | > 100 µM | – | –
2 | [Au+].[Au+].[Au+].[c-]1nccn1Cc1ccccc1.[c-]1nccn1Cc1ccccc1.[c-]1nccn1Cc1ccccc1 | 44.1 µM | 17.4 µM | 34.4 µM | 10.7 µM | 39 µM | 19.9 µM | 56.7 µM | 3.16 µM | 16 µM | 14.4 µM | 37.9 µM | 11.6 µM | 38.8 µM | 5.8 µM | 16.9 µM | > 77.4 µM | 2.75 µM | 6.68 µM | 12.7 µM | 2.03 µM
3 | CCC(C)(C)c1ccc(OCCCCCCN2CCNCC2)cc1 | 5.03 µM | 2.6 µM | 13.8 µM | 1.56 µM | 3.2 µM | 1.66 µM | 3.39 µM | 1.76 µM | 3.65 µM | 2 µM | 3.76 µM | 9.73 µM | 27.1 µM | 2.92 µM | 1.86 µM | 4.72 µM | 1.92 µM | 4.17 µM | 1.96 µM | 1.47 µM
4 | Nc1nc(SN=Nc2ccc(S(N)(=O)=O)cc2)c2[nH]cnc2n1 | > 51.1 µM | 1.64 µM | > 100 µM | 0.289 µM | > 100 µM | 0.563 µM | > 100 µM | 2.18 µM | > 53.6 µM | 0.508 µM | > 100 µM | 0.714 µM | > 100 µM | 5.52 µM | 0.79 µM | > 100 µM | 0.393 µM | 9 µM | 0.581 µM | 0.394 µM
5 | O=C(Nc1ccc(CO)cc1)c1coc2ccccc2c1=O | > 100 µM | > 100 µM | > 100 µM | > 100 µM | > 100 µM | > 100 µM | > 100 µM | > 100 µM | > 100 µM | > 100 µM | > 100 µM | > 100 µM | > 100 µM | > 100 µM | > 100 µM | > 100 µM | > 100 µM | > 100 µM | > 100 µM | > 100 µM
6 | COc1ccc(OC)c2c(/C=C/c3ccc(N(C)C)cc3)ccnc12 | > 10 µM | – | > 10 µM | – | > 10 µM | – | > 10 µM | – | 3.86 µM | – | > 10 µM | – | > 10 µM | > 10 µM | – | > 10 µM | – | > 10 µM | – | –
7 | COc1ccc2[nH]c3c4c(ccc3c2c1)C(=O)C=CC4=O | 28.6 µM | – | 33.8 µM | – | 30.1 µM | – | 11.4 µM | – | 1.11 µM | – | 45.9 µM | – | 29.9 µM | 6.88 µM | – | 46.9 µM | – | 35.2 µM | – | –
8 | C=CCSS/C=C/CS(=O)CC=C (configuration not stated) | 99.3 µM | – | > 100 µM | – | > 100 µM | – | > 100 µM | – | > 100 µM | – | > 100 µM | – | > 100 µM | 55.6 µM | – | > 74.6 µM | – | 44.1 µM | – | –
9 | COc1ccc(-c2ccc(/C=N/n3c(C)n[nH]c3=S)o2)c([N+](=O)[O-])c1 | > 100 µM | > 100 µM | > 100 µM | > 100 µM | > 100 µM | > 100 µM | > 100 µM | > 100 µM | > 100 µM | > 100 µM | > 100 µM | > 100 µM | > 100 µM | > 100 µM | > 100 µM | > 100 µM | > 100 µM | > 100 µM | > 100 µM | 32.8 µM
10 | COc1cc2c(cc1O)C1Cc3ccc(OC)c(O)c3C(C2)N1C (configuration not stated) | > 100 µM | – | > 100 µM | – | > 100 µM | – | > 100 µM | – | > 100 µM | – | > 100 µM | – | > 100 µM | > 100 µM | – | > 100 µM | – | > 100 µM | – | –
11 | O=c1[nH]cnc2cccc(Cl)c12 | > 100 µM | – | > 100 µM | – | > 100 µM | – | > 100 µM | – | > 100 µM | – | > 100 µM | – | > 100 µM | > 100 µM | – | > 100 µM | – | > 100 µM | – | –
12 | NC(CS/C(Cl)=C/Cl)C(=O)O (configuration not stated) | > 100 µM | 34.3 µM | > 100 µM | 4.03 µM | > 100 µM | 28.7 µM | > 100 µM | 51.7 µM | > 100 µM | 68.8 µM | > 100 µM | 31.7 µM | > 100 µM | > 87.2 µM | 54.7 µM | > 100 µM | 8.19 µM | > 68.3 µM | 38.3 µM | > 44.6 µM
13 | O=C(/C=C/c1cc(CN2CCOCC2)c(O)c2ncccc12)c1cc(CN2CCOCC2)c(O)c2ncccc12 | > 100 µM | 0.05 µM | > 100 µM | < 0.0175 µM | > 100 µM | 0.0236 µM | > 100 µM | 0.0309 µM | – | 0.0506 µM | > 100 µM | 0.077 µM | > 100 µM | 14.3 µM | 0.0695 µM | > 100 µM | 0.0506 µM | > 64.2 µM | 0.0804 µM | 0.14 µM
14 | CC(C)S(=O)(=O)c1ccccc1Nc1nc(Nc2cccc(NC(=O)CN)c2)ncc1Cl | 5.05 µM | 0.308 µM | 5.9 µM | 0.0177 µM | 1.25 µM | 0.16 µM | 3.72 µM | 0.103 µM | 0.55 µM | 0.399 µM | 4.12 µM | 1.5 µM | 10.1 µM | 0.302 µM | 0.183 µM | 2.83 µM | 0.189 µM | 1.49 µM | 0.336 µM | 0.0565 µM
15 | COc1cc2ncn(-c3cc(OCCc4ccccc4)c(C(N)=O)s3)c2cc1OC | > 25 µM | > 25 µM | > 25 µM | 10.1 µM | > 25 µM | > 25 µM | > 25 µM | > 20.2 µM | > 25 µM | > 25 µM | > 25 µM | > 25 µM | > 25 µM | > 25 µM | 13.6 µM | > 25 µM | > 25 µM | > 25 µM | > 25 µM | 9.53 µM
16 | Cc1c(C2=C(Br)C(=O)N(C)C2=O)c(=O)n(C)c(=O)n1C | > 100 µM | – | 49.6 µM | – | 37.1 µM | – | 45.2 µM | – | 41 µM | – | 53.3 µM | – | 41.8 µM | 29 µM | – | 42.2 µM | – | > 100 µM | – | –
17 | COc1ccc(C(=O)COc2cccc(/C=C3\Oc4ccc5ccccc5c4C3=O)c2)cc1 | 17.5 µM | 1.54 µM | 3.23 µM | 2.45 µM | 16.1 µM | 2.94 µM | 13.7 µM | 3.19 µM | 18.7 µM | 15.3 µM | 28.8 µM | 14.4 µM | 42.8 µM | 1.77 µM | 6.92 µM | 44.6 µM | 4.8 µM | 18.1 µM | 5.08 µM | 0.545 µM
18 | Cc1cn2c(/C=C3\C(=O)N(C)c4ccc(O)cc43)c(C)nc2s1 | > 100 µM | 7.46 µM | > 100 µM | 2.97 µM | 11.9 µM | 4.16 µM | > 100 µM | 2.15 µM | 6.1 µM | 7.37 µM | 36 µM | 14.8 µM | > 100 µM | > 100 µM | 3.12 µM | 18.4 µM | 3.43 µM | 25.1 µM | 20.5 µM | 36 µM
19 | CCOC(=O)CNC(=O)c1ccccc1Nc1ccnc(C(F)(F)F)c1 | > 100 µM | 25.4 µM | > 95.5 µM | 38.8 µM | > 89.1 µM | > 54.6 µM | > 100 µM | 33.2 µM | > 100 µM | 71.3 µM | > 100 µM | 30.6 µM | > 96 µM | > 64.4 µM | 44.4 µM | > 100 µM | 38.1 µM | > 74.9 µM | 43.7 µM | 31.3 µM
20 | COCCOc1cnc2ccn([C@H](C)c3nnc4c(F)cc(-c5cnn(C)c5)cn34)c(=O)c2c1 | > 100 µM | > 100 µM | > 100 µM | > 100 µM | > 100 µM | > 100 µM | > 100 µM | > 100 µM | > 100 µM | > 100 µM | > 100 µM | > 100 µM | > 100 µM | > 100 µM | > 100 µM | > 100 µM | > 100 µM | > 100 µM | 52 µM | > 100 µM
21 | O=C(Nc1ccc(Br)cc1)c1ccc(Cl)c(Cl)c1 | > 100 µM | 2.47 µM | > 30.8 µM | 2.19 µM | > 31.4 µM | 3.02 µM | > 100 µM | 2.14 µM | 7.37 µM | 3.99 µM | > 71.7 µM | 1.99 µM | > 100 µM | > 100 µM | 3.42 µM | > 100 µM | 3.76 µM | > 100 µM | 3.78 µM | > 28 µM
